Assay results as given in patent publication US7989438B2, “Therapeutic compounds” (Istituto di Ricerche di Biologia Molecolare P. Angeletti SpA, priority 2007, dated 2011).

What follows are compounds tested on HCV subgenomic replication (assay: Cell based HCV replication assay (subgenomic replicon in Huh-7 cells, NS3 Cell-ELISA)). Conditions: Hepatitis C virus, Huh-7; Table 3, various macrocycles; activity ranges; read-out: IC50* (nM), Inhibition of HCV subgenomic replication.
Procedure, shortened: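 Huh-7 cells stably carrying the I377neo/NS3-3′/wt subgenomic replicon, seeded at 10^4 cells/well in DMEM/10% FCS and exposed to inhibitor for 96 h. NS3 expression was measured by Cell-ELISA (mAb 10E5/24, alkaline phosphatase, absorbance 405/620 nm), in duplicate. IC50 was fitted to the Hill equation, with background from parental Huh-7 cells.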
In the case of CN1C2CCN(CCN(C)S(=O)(=O)NC(=O)c3ccc4c(C5CCCCC5)c5n(c4c3)C[C@@H]1COc1ccccc1-5)C2 [Example 301, (18R)-29-cyclohexyl-10,17-dimethyl-20-oxa-9-thia-1,8,10,13,17-pentaazahexacyclo[16.9.1.1^2,6.1^3,27.1^13,16.0^21,26]hentriaconta-2(31),3,5,21,23,25,27(29)-heptaen-7-one 9,9-dioxide], the IC50 is reported as less than 25 nM.
Compound CN1C2CCN(CC2)CCN(C)S(=O)(=O)NC(=O)c2ccc3c(C4CCCCC4)c4n(c3c2)C[C@@H]1COc1ccccc1-4 [Example 302, (3R)-31-cyclohexyl-2,22-dimethyl-5-oxa-21-thia-2,13,20,22,25-pentaazahexacyclo[23.2.2.1^3,13.1^12,15.1^14,18.0^6,11]dotriaconta-6,8,10,12(31),14(30),15,17-heptaen-19-one 21,21-dioxide] has an IC50 of less than 25 nM.
Compound CN1CCN2CCC(CC2)N(C)S(=O)(=O)NC(=O)c2ccc3c(C4CCCCC4)c4n(c3c2)C[C@@H]1COc1ccccc1-4 [Example 303, (5R)-31-cyclohexyl-4,24-dimethyl-7-oxa-23-thia-1,4,15,22,24-pentaazahexacyclo[23.2.2.1^5,15.1^14,17.1^16,20.0^8,13]dotriaconta-8,10,12,14(31),16(30),17,19-heptaen-21-one 23,23-dioxide] has an IC50 of less than 25 nM.
For CN1CCN2CCCN(CC2)S(=O)(=O)NC(=O)c2ccc3c(C4CCCCC4)c4n(c3c2)C[C@@H]1COc1ccccc1-4 [Example 304, (20R)-31-cyclohexyl-21-methyl-18-oxa-2-thia-1,3,10,21,24-pentaazahexacyclo[22.3.2.1^5,9.1^8,11.1^10,20.0^12,17]dotriaconta-5(32),6,8,11(31),12,14,16-heptaen-4-one 2,2-dioxide], the IC50 was less than 25 nM.
In the case of CN1CCOC2CCN(CC2)S(=O)(=O)NC(=O)c2ccc3c(C4CCCCC4)c4n(c3c2)C[C@@H]1COc1ccccc1-4 [Example 306, (20R)-31-cyclohexyl-21-methyl-18,24-dioxa-2-thia-1,3,10,21-tetraazahexacyclo[23.2.2.1^5,9.1^8,11.1^10,20.0^12,17]dotriaconta-5(32),6,8,11(31),12,14,16-heptaen-4-one 2,2-dioxide], the IC50 is reported as 150 to 500 nM.

Same assay, conditions: Table 2, various macrocycles; activity ranges; read-out: IC50* (nM), Inhibition of HCV subgenomic replication
CCN1CCNC2COc3cc(F)ccc3-c3c(C4CCCCC4)c4ccc(cc4n3C2)C(=O)NS(=O)(=O)N(C)CC1 [Example 204, (7R)-14-cyclohexyl-21-ethyl-3-fluoro-18-methyl-7,8-dihydro-6H-7,11-(epiminoethanoiminoethanoiminothioiminomethano)-indolo[1,2-e][1,5]benzoxazocin-15-one 17,17-dioxide] was tested, and the IC50 was 25 to 150 nM.
With CCN1CCN(C)C2COc3ccc(F)cc3-c3c(C4CCCCC4)c4ccc(cc4n3C2)C(=O)NS(=O)(=O)N(C)CC1 [Example 205, (7R)-14-cyclohexyl-21-ethyl-2-fluoro-18,24-dimethyl-7,8-dihydro-6H-7,11-(epiminoethanoiminoethanoiminothioiminomethano)-indolo[1,2-e][1,5]benzoxazocin-15-one 17,17-dioxide] the IC50 was less than 25 nM.
CCN1CCN(Cc2cccnc2)C2COc3ccc(F)cc3-c3c(C4CCCCC4)c4ccc(cc4n3C2)C(=O)NS(=O)(=O)N(C)CC1 [Example 206, (7R)-14-cyclohexyl-21-ethyl-2-fluoro-18-methyl-24-(pyridin-3-ylmethyl)-7,8-dihydro-6H-7,11-(epiminoethanoiminoethanoiminothioiminomethano)-indolo[1,2-e][1,5]benzoxazocin-15-one 17,17-dioxide] gave an IC50 of less than 25 nM.
For CC(C)N1CCN(C)[C@H]2COc3cc(F)ccc3-c3c(C4CCCCC4)c4ccc(cc4n3C2)C(=O)NS(=O)(=O)N(C)CC1 [Example 207, (7R)-14-cyclohexyl-3-fluoro-21-isopropyl-18,24-dimethyl-7,8-dihydro-6H-7,11-(epiminoethanoiminoethanoiminothioiminomethano)-indolo[1,2-e][1,5]benzoxazocin-15-one 17,17-dioxide], the IC50 was less than 25 nM.
Compound CCN1CCN(CCNC)C2COc3cc(F)ccc3-c3c(C4CCCCC4)c4ccc(cc4n3C2)C(=O)NS(=O)(=O)N(C)CC1 [Example 208, (7R)-14-cyclohexyl-21-ethyl-3-fluoro-18-methyl-24-[2-(methylamino)ethyl]-7,8-dihydro-6H-7,11-(epiminoethanoiminoethanoiminothioiminomethano)-indolo[1,2-e][1,5]benzoxazocin-15-one 17,17-dioxide] has an IC50 of 25 to 150 nM.
CC(C)N1CCN(C)C2COc3ccc(F)cc3-c3c(C4CCCCC4)c4ccc(cc4n3C2)C(=O)NS(=O)(=O)N(C)CC1 [Example 209, (7R)-14-cyclohexyl-2-fluoro-21-isopropyl-18,24-dimethyl-7,8-dihydro-6H-7,11-(epiminoethanoiminoethanoiminothioiminomethano)-indolo[1,2-e][1,5]benzoxazocin-15-one 17,17-dioxide] gave an IC50 of less than 25 nM.
Work on CCN1CCN(C)C2COc3cc(OC)ccc3-c3c(C4CCCCC4)c4ccc(cc4n3C2)C(=O)NS(=O)(=O)N(C)CC1 [Example 210, (7R)-14-cyclohexyl-21-ethyl-3-methoxy-18,24-dimethyl-7,8-dihydro-6H-7,11-(epiminoethanoiminoethanoiminothioiminomethano)-indolo[1,2-e][1,5]benzoxazocin-15-one 17,17-dioxide] yielded an IC50 of less than 25 nM.
For CCN1CCN(C)[C@H]2COc3cc(OCc4ccccn4)ccc3-c3c(C4CCCCC4)c4ccc(cc4n3C2)C(=O)NS(=O)(=O)N(C)CC1 [Example 211, (7R)-14-cyclohexyl-21-ethyl-18,24-dimethyl-3-(pyridin-2-ylmethoxy)-7,8-dihydro-6H-7,11-(epiminoethanoiminoethanoiminothioiminomethano)-indolo[1,2-e][1,5]benzoxazocin-15-one 17,17-dioxide], the IC50 was less than 25 nM.
For CCCc1cccc2c1OCC1Cn3c-2c(C2CCCCC2)c2ccc(cc23)C(=O)NS(=O)(=O)N(C)CCN(C)CCN1C [Example 212, (7R)-14-cyclohexyl-18,21,24-trimethyl-4-propyl-7,8-dihydro-6H-7,11-(epiminoethanoiminoethanoiminothioiminomethano)-indolo[1,2-e][1,5]benzoxazocin-15-one 17,17-dioxide], the IC50 was 25 to 150 nM.
Compound CCCc1cccc2c1OCC1Cn3c-2c(C2CCCCC2)c2ccc(cc23)C(=O)NS(=O)(=O)N(C)CCN(C(C)C)CCN1C [Example 213, (7R)-14-cyclohexyl-21-isopropyl-18,24-dimethyl-4-propyl-7,8-dihydro-6H-7,11-(epiminoethanoiminoethanoiminothioiminomethano)-indolo[1,2-e][1,5]benzoxazocin-15-one 17,17-dioxide] has an IC50 of 25 to 150 nM.
Compound CCN1CCN(CCO)[C@H]2COc3cc(C)ccc3-c3c(C4CCCCC4)c4ccc(cc4n3C2)C(=O)NS(=O)(=O)N(C)CC1 [Example 214, (7R)-14-cyclohexyl-21-ethyl-24-(2-hydroxyethyl)-3,18-dimethyl-7,8-dihydro-6H-7,11-(epiminoethanoiminoethanoiminothioiminomethano)-indolo[1,2-e][1,5]benzoxazocin-15-one 17,17-dioxide] has an IC50 of less than 25 nM.
CCN1CCN(C)[C@H]2COc3cc(C)ccc3-c3c(C4CCCCC4)c4ccc(cc4n3C2)C(=O)NS(=O)(=O)N(C)CC1 [Example 215, (7R)-14-cyclohexyl-21-ethyl-3,18,24-trimethyl-7,8-dihydro-6H-7,11-(epiminoethanoiminoethanoiminothioiminomethano)-indolo[1,2-e][1,5]benzoxazocin-15-one 17,17-dioxide] was tested, and the IC50 was less than 25 nM.
With Cc1ccc2c(c1)OCC1Cn3c-2c(C2CCCCC2)c2ccc(cc23)C(=O)NS(=O)(=O)N(C)CCN(C)CCN1C [Example 216, (7R)-14-cyclohexyl-3,18,21,24-tetramethyl-7,8-dihydro-6H-7,11-(epiminoethanoiminoethanoiminothioiminomethano)-indolo[1,2-e][1,5]benzoxazocin-15-one 17,17-dioxide] the IC50 was less than 25 nM.
CCN1CCN(CCN(C)C)C2COc3ccccc3-c3c(C4CCCCC4)c4ccc(cc4n3C2)C(=O)NS(=O)(=O)N(C)CC1 [Example 217, (7R)-14-cyclohexyl-24-[2-(dimethylamino)ethyl]-21-ethyl-18-methyl-7,8-dihydro-6H-7,11-(epiminoethanoiminoethanoiminothioiminomethano)-indolo[1,2-e][1,5]benzoxazocin-15-one 17,17-dioxide] gave an IC50 of less than 25 nM.
Compound Cc1ccc2c(c1)OCC1Cn3c-2c(C2CCCCC2)c2ccc(cc23)C(=O)NS(=O)(=O)N(C)CCN(C(C)C)CCN1C [Example 218, (7R)-14-cyclohexyl-21-isopropyl-3,18,24-trimethyl-7,8-dihydro-6H-7,11-(epiminoethanoiminoethanoiminothioiminomethano)-indolo[1,2-e][1,5]benzoxazocin-15-one 17,17-dioxide] has an IC50 of less than 25 nM.
CCN1CCN(CCN(C)C)C2COc3c(C)cccc3-c3c(C4CCCCC4)c4ccc(cc4n3C2)C(=O)NS(=O)(=O)N(C)CC1 [Example 219, (7R)-14-cyclohexyl-24-[2-(dimethylamino)ethyl]-21-ethyl-4,18-dimethyl-7,8-dihydro-6H-7,11-(epiminoethanoiminoethanoiminothioiminomethano)-indolo[1,2-e][1,5]benzoxazocin-15-one 17,17-dioxide] gave an IC50 of less than 25 nM.
CN(C)CCN1CCN(C)C2COc3ccccc3-c3c(C4CCCCC4)c4ccc(cc4n3C2)C(=O)NS(=O)(=O)N(C)CC1 [Example 220, (7R)-14-cyclohexyl-21-[2-(dimethylamino)ethyl]-18,24-dimethyl-7,8-dihydro-6H-7,11-(epiminoethanoiminoethanoiminothioiminomethano)-indolo[1,2-e][1,5]benzoxazocin-15-one 17,17-dioxide] gave an IC50 of less than 25 nM.
